Laboratory results from US9493446B2, “Orexin receptor antagonists which are [ortho bi-(hetero-)aryl]-[2-(meta bi-(hetero-)aryl)-pyrrolidin-1-yl]-methanone derivatives” (Actelion Pharmaceuticals Ltd, priority 2012, dated 2016).
Where two headings read alike, the source gives them in different places.

How the values were obtained:
orexin-1 = orexin-1 (Homo sapiens (Human), UniProt O43613); test: Intracellular calcium measurement (FLIPR), CHO cells expressing human orexin-1 receptor, 3 nM orexin-A; format: cell-based; details: read-out: IC50 OX1
Outline: (§1)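 HBSS buffer with 0.1% BSA, NaHCO3 and 20 mM HEPES carries both compounds and agonist. Dye: fluo-4 AM (3 μM) with 5 mM probenecid. Compound exposure 120 min; peak signal scored against uninhibited orexin-A response.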

human orexin-2 receptor = human orexin-2 receptor (Homo sapiens (Human), UniProt O43614); test: Intracellular calcium measurement (FLIPR), CHO cells expressing human orexin-2 receptor, 3 nM orexin-A; format: cell-based; details: CHO cells expressing human orexin-2 receptor, FLIPR, 3 nM orexin-A; geometric mean if determined several times; read-out: IC50 OX2
Outline: as §1

[1] = CHO cells expressing human orexin-1 receptor, FLIPR, 3 nM orexin-A, geometric mean if determined several times

human orexin-2 receptor, sequence (O43614 whole entry): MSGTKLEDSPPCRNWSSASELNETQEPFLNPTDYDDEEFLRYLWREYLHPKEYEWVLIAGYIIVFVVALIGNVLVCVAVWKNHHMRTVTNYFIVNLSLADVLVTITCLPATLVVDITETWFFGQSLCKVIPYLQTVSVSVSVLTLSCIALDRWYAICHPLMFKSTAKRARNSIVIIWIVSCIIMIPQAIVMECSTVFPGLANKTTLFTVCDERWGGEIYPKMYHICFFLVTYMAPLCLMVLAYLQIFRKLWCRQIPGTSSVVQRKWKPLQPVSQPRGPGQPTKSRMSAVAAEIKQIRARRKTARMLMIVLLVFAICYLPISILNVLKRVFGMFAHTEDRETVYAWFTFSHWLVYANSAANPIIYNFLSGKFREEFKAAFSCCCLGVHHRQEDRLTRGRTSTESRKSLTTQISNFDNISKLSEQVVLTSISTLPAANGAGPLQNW
orexin-1, sequence (O43613 whole entry): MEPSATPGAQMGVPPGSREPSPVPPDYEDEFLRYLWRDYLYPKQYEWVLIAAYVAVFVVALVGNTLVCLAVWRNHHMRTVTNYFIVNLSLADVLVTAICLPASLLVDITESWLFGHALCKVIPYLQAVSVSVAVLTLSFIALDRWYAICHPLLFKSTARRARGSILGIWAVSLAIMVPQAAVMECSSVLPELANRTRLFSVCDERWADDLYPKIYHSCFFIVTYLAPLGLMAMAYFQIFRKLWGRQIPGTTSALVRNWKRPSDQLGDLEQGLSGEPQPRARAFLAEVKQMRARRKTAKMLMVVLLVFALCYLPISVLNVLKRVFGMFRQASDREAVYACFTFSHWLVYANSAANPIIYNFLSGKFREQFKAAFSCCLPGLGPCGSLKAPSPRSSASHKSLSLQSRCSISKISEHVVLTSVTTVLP

Molecule | IC50 (orexin-1; [1]) [nM] | IC50 (human orexin-2 receptor) [nM] | IC50 (orexin-1) [nM]
Furan-3-yl-[(S)-2-(3-o-tolyl-[1,2,4]oxadiazol-5-yl)-pyrrolidin-1-yl]-methanone [Reference compound 6, reference compound] |  | 27 | 21
Cc1ccc(-n2nccn2)c(C(=O)N2CCC[C@H]2c2nc(-c3cccc4c3OCO4)no2)c1 [compound 52, [(S)-2-(3-Benzo[1,3]dioxol-4-yl-[1,2,4]oxadiazol-5-yl)-pyrrolidin-1-yl]-(5-methyl-2-[1,2,3]triazol-2-yl-phenyl)-methanone] | 182 | 25 | 
Cc1c(Cl)cccc1-c1noc([C@@H]2CCCN2C(=O)c2cc(OC(F)(F)F)ccc2-n2nccn2)n1 [compound 99] |  | 614 | 895
Cc1onc(-c2ccccc2Cl)c1C(=O)N1CCC[C@H]1c1nnc(-c2cccc(Cl)c2C)o1 [Ref 9] | 11100 | > 21800 | 
COc1cc(C(=O)N2CCC[C@H]2c2nnc(-c3ccccc3OC(F)(F)F)[nH]2)c(-n2nccn2)cc1Cl [compound 509] | 22 | 3 | 
Cc1onc(-c2ccccc2Cl)c1C(=O)N1CCC[C@H]1c1noc(-c2cccc(Cl)c2C)n1 [Ref 8] | > 26200 | > 21800 | 
Cc1c(Cl)cccc1-c1noc([C@@H]2CCCN2C(=O)c2ccccc2-c2ccccc2)n1 [compound 268] | 233 | 31 | 
Cc1ccc(-n2nccn2)c(C(=O)N2CCC[C@H]2c2nc(-c3ccc4c(c3)OCO4)no2)c1 [compound 22, [(S)-2-(3-Benzo[1,3]dioxol-5-yl-[1,2,4]oxadiazol-5-yl)-pyrrolidin-1-yl]-(5-methyl-2-[1,2,3]triazol-2-yl-phenyl)-methanone] | 942 | 322 | 
Cc1ccc(-n2cccn2)c(C(=O)N2CCC[C@H]2c2nc(-c3ccccc3OC(F)(F)F)no2)c1 [compound 137, (5-Methyl-2-pyrazol-1-yl-phenyl)-{(S)-2-[3-(2-trifluoromethoxy-phenyl)-[1,2,4]oxadiazol-5-yl]-pyrrolidin-1-yl}-methanone] | 33 | 23 | 
COc1cc(C(=O)N2CCC[C@H]2c2noc(-c3cccc(Cl)c3OC)n2)c(-n2nccn2)cc1Cl [compound 347] | 15 | 1 | 

More lines, main results first:

IC50 (orexin-1; [1]) [nM] | IC50 (human orexin-2 receptor) [nM] | Molecule | IC50 (orexin-1) [nM]
21 | 17 | CCOc1ncccc1-c1nnc([C@@H]2CCCN2C(=O)c2cc(OC)c(C)cc2-n2nccn2)[nH]1 [compound 479, {(S)-2-[5-(2-Ethoxy-pyridin-3-yl)-4H-[1,2,4]triazol-3-yl]-pyrrolidin-1-yl}-(5-methoxy-4-methyl-2-[1,2,3]triazol-2-yl-phenyl)-methanone] | 
160 | 148 | CCOc1ncccc1-c1noc([C@@H]2CCCN2C(=O)c2cc(OC)c(OC)cc2-n2nccn2)n1 [compound 226, (4,5-Dimethoxy-2-[1,2,3]triazol-2-yl-phenyl)-{(S)-2-[3-(2-ethoxy-pyridin-3-yl)-[1,2,4]oxadiazol-5-yl]-pyrrolidin-1-yl}-methanone] | 
137 | 90 | COc1ccc(C(=O)N2CCC[C@H]2c2nc(-c3ccccc3OC(F)(F)F)no2)c(-n2nccn2)c1 [compound 169, (4-Methoxy-2-[1,2,3]triazol-2-yl-phenyl)-{(S)-2-[3-(2-trifluoromethoxy-phenyl)-[1,2,4]oxadiazol-5-yl]-pyrrolidin-1-yl}-methanone] | 
751 | 204 | O=C(c1cc(F)c(F)cc1-n1nccn1)N1CCC[C@H]1c1nc(-c2ccccc2OC(F)(F)F)no1 [compound 161, (4,5-Difluoro-2-[1,2,3]triazol-2-yl-phenyl)-{(S)-2-[3-(2-trifluoromethoxy-phenyl)-[1,2,4]oxadiazol-5-yl]-pyrrolidin-1-yl}-methanone] | 
389 | 109 | Cc1ccc(-n2nccn2)c(C(=O)N2CCC[C@H]2c2ncc(-c3ccccc3)[nH]2)c1 [compound 527, (5-Methyl-2-[1,2,3]triazol-2-yl-phenyl)-[(S)-2-(5-phenyl-1H-imidazol-2-yl)-pyrrolidin-1-yl]-methanone] | 
